Columns and labels:
[1] = biological target: T1, ryanodine receptor channel (Ca- channel) (Sus scrofa, UniProt A0A5G2R1W3); test: Single channel current measurement and fluorescence observation of ryanodine receptor channel in artificial lipid bilayer membrane; type: biochemical, swine; conditions: 1 to 10 nM Cy5-labeled ryanodine added from the upside of the membrane; 500 mM Na-methanesulfonic acid, 40 mM Hepes (pH 7.4), 0.01-0.1 μM Ca2+
T1 construct: a cell membrane vesicle sampled from a swine cardiac muscle; from tissue; host or cells: swine cardiac muscle membrane vesicles
Excerpt: (§1) In the present Example, a current measuring device according to the present invention (FIG. 5) was used. […] In the bottom 9, a small hole 4 whose diameter was 0.15 mm was provided. A square glass plate whose thickness was 0.17 mm and each side was 18 mm was used as the bottom plate 6. Further, an agarose gel layer whose thickness was 100 nm was formed on the bottom plate 6 as the support layer 5 so as to be positioned in a face contacting the upper solution chamber 3. […] In measuring a current, a patch-clamp amplifier (CEZ-2400 produced by Nihon Kohden Corporation) was used, and the measured current was recorded on a DAT tape by using a DAT recorder. […]
Thereafter, solution obtained by dissolving phosphatidylcholine in decane so that its concentration was 20 mg/ml was applied to the small hole 4 provided in the bottom 9 of the upper solution chamber 3. […] At this time, the ryanodine receptor channel on the vesicle membrane was fluorescence-labeled with fluorescent dye Cy5 (product of Amensham Pharmacia) in advance, and then the cell membrane vesicle was fused with the artificial lipid bilayer membrane 2. The fluorescence labeling of the ryanodine receptor channel was carried out as follows: a corresponding specific monoclonal antibody was labeled with Cy5, and the thus labeled antibody was coupled with the ryanodine receptor channel. […]

[2] = biological target: T2, plain muscle Ca2+ dependency K+ channel (Bos taurus, UniProt Q28204); test: Single channel current measurement of plain muscle Ca2+ dependency K+ channel in artificial lipid bilayer membrane; type: biochemical, bovine; conditions: 100 mM KCl, 10 mM Hepes (pH 7.4)
T2 construct: inserting a K^+ channel on the vesicle membrane into the artificial lipid bilayer membrane 2; from tissue; host or cells: bovine tracheal smooth (plain) muscle membrane vesicles
Excerpt: as §1
Thereafter, lipid solution obtained by dissolving phosphatidylcholine (product of Sigma) in decane so that its concentration was 20 mg/mL was applied to the small hole 4 provided in the bottom 9 of the upper solution chamber 3. […] By using the thus produced current measuring device, a current was measured with time.
Subsequently, only the CaCl2 concentration of the aqueous solution with which the upper solution chamber 3 and the lower solution chamber 8 were filled was changed into 1 mM. Under this condition, a current measuring device was produced in the same manner, and a current was measured.

T2 sequence (Q28204 whole entry): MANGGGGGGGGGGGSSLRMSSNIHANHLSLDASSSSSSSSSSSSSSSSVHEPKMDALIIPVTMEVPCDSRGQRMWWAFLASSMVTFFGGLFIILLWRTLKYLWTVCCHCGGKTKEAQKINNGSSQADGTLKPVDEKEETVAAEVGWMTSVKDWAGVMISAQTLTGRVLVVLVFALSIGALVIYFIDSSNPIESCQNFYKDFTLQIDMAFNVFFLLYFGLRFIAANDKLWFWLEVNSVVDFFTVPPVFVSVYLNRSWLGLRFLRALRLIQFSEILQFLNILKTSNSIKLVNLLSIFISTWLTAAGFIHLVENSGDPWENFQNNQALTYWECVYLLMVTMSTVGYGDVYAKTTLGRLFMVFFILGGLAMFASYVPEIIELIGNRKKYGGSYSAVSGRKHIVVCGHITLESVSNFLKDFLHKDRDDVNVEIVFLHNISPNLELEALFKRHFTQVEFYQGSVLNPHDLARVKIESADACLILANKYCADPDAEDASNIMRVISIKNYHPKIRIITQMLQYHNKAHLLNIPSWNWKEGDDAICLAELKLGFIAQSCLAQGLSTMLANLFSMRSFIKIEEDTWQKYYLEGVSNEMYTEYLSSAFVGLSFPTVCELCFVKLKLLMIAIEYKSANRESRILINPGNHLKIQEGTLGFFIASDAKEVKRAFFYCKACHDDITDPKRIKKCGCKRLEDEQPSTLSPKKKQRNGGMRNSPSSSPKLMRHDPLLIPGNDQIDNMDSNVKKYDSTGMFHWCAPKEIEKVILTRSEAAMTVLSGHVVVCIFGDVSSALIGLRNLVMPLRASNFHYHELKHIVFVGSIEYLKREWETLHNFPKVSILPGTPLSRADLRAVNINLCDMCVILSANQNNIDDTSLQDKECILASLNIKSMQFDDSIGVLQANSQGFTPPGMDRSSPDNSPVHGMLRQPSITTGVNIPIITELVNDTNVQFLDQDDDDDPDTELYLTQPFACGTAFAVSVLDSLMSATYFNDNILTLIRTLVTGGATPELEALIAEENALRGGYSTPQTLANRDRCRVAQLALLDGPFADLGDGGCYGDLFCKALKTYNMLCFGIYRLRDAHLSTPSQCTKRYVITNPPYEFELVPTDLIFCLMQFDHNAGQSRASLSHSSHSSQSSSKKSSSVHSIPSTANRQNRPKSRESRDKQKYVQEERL
T2 sequence (Q28067 whole entry partner): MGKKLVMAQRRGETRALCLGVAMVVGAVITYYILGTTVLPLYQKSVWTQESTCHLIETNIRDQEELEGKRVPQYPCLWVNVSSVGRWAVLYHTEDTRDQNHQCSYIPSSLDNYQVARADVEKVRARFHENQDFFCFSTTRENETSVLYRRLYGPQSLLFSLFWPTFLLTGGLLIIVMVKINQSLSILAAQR

Compound	channel activity (current trace after addition) [1]	state of the ion channel (current trace) ([2]; CaCl2 1 mM)	state of the ion channel (current trace) ([2]; CaCl2 10^-9 M)
ryanodine	activation of the ryanodine receptor channel occurs	–	–
[Ca+2].[Cl-].[Cl-] [CaCl2]	–	more likely to open	closed

— patent US7408359B2, “Current measuring device having artificial lipid bilayer membrane” (Japan Science and Technology Agency, priority 2003, dated 2008)
